{"source": "patent US20230278972A1", "about": "“SUBSTITUTED HALOALKYL SULFONANILIDE HERBICIDES” (FMC Corporation, priority 2020, published 2023)", "assay_type_in_all_cases": "in vivo", "key": {"soybean (Glycine max)": {"system": "soybean (Glycine max)", "assay": "Test A1 postemergence, soybean", "conditions": "for Soybean plant response rating: postemergence; for Plant response rating, Soybean: Postemergence", "method_in_brief": "(§1)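 Test compounds were formulated in a non-phytotoxic solvent mixture containing a surfactant. For preemergence, seeds sown in a loam soil–sand blend received a directed soil spray. For postemergence, potted plants in the same soil, 2 to 10 cm tall at the one- to two-leaf stage, were sprayed.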"}, "[1]": {"system": "Pigweed, Palmer (palmer amaranth, palmer pigweed, Amaranthus palmeri)", "assay": "Test A1 preemergence, Pigweed, Palmer", "method_in_brief": "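Both timings started from seed in a loam-sand blend. Preemergence pots got a directed soil application immediately; postemergence pots were sprayed when seedlings had one or two leaves and stood 2–10 cm. Each compound was prepared in a non-phytotoxic solvent plus surfactant.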"}, "[2]": {"system": "Pigweed, Palmer (palmer amaranth, palmer pigweed, Amaranthus palmeri)", "assay": "Test A1 postemergence, Pigweed, Palmer", "conditions": "for Pigweed, Palmer plant response rating: postemergence; for Plant response rating, Pigweed, Palmer: Postemergence", "method_in_brief": "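Pre: seeds in loam/sand blend, directed soil spray. Post: potted plants, same soil, 2–10 cm, 1–2 leaf stage. Chemicals in non-phytotoxic solvent + surfactant for both.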"}, "[3]": {"system": "blackgrass (Alopecurus myosuroides)", "assay": "Test A1 postemergence, blackgrass", "conditions": "0 to 100 scale (0 no effect, 100 complete control); for Plant response rating, Blackgrass: Postemergence; for Blackgrass plant response rating: postemergence", "method_in_brief": "as §1"}, "[4]": {"conditions": "31 g ai/ha, 0 to 100 scale (0 no effect, 100 complete control)"}, "[5]": {"conditions": "125 g ai/ha, 0 to 100 scale, 0 no effect, 100 complete control"}, "[6]": {"conditions": "31 g ai/ha, 0 to 100 scale (0 no effect, 100 complete control), 10 days"}, "[7]": {"conditions": "125 g ai/ha, 0 to 100 scale (0 no effect, 100 complete control), 10 days"}}, "data": [{"smiles": "COC1CCN(C(=O)c2cc(N(COC(=O)C(C)(C)C)S(=O)(=O)C(F)(F)F)c(C)c(C)c2C)CC1", "note": "[Compound 370]", "values": [{"measurement": "Soybean plant response rating", "setting": "soybean (Glycine max); [4]", "value": 50}, {"measurement": "Plant response rating, Soybean", "setting": "soybean (Glycine max); 125 g ai/ha, 0 to 100 scale", "value": 80}, {"measurement": "Plant response rating, Pigweed, Palmer", "setting": "[1]; [4]", "value": 30}, {"measurement": "Plant response rating, Pigweed, Palmer", "setting": "[1]; [5]", "value": 70}, {"measurement": "Pigweed, Palmer plant response rating", "setting": "[2]; [4]", "value": 0}, {"measurement": "Plant response rating, Pigweed, Palmer", "setting": "[2]; 125 g ai/ha, 0 to 100 scale", "value": 20}, {"measurement": "Plant response rating, Blackgrass", "setting": "[3]; 31 g ai/ha, 10 days", "value": 0}, {"measurement": "Plant response rating, Blackgrass", "setting": "[3]; 125 g ai/ha", "value": 0}]}, {"smiles": "Cc1c(C(=O)N2CCSCC2)cc(N(COC(=O)C(C)(C)C)S(=O)(=O)C(F)(F)F)c(C)c1C", "note": "[Compound 285]", "values": [{"measurement": "Plant response rating, Soybean", "setting": "soybean (Glycine max); [6]", "value": 30}, {"measurement": "Plant response rating, Soybean", "setting": "soybean (Glycine max); 125 g ai/ha, 0 to 100 scale", "value": 60}, {"measurement": "Plant response rating, Pigweed, Palmer", "setting": "[1]; [4]", "value": 10}, {"measurement": "Plant response rating, Pigweed, Palmer", "setting": "[1]; [5]", "value": 20}, {"measurement": "Plant response rating, Pigweed, Palmer", "setting": "[2]; [6]", "value": 0}, {"measurement": "Plant response rating, Pigweed, Palmer", "setting": "[2]; 125 g ai/ha, 0 to 100 scale", "value": 20}, {"measurement": "Plant response rating, Blackgrass", "setting": "[3]; 31 g ai/ha, 10 days", "value": 0}, {"measurement": "Plant response rating, Blackgrass", "setting": "[3]; 125 g ai/ha", "value": 30}]}, {"smiles": "Cc1cc(C)c(N(COC(=O)C(C)(C)C)S(=O)(=O)C(F)(F)F)cc1C1=NOC(C(C)C)C1", "note": "(stereo not drawn) [Compound 383]", "values": [{"measurement": "Soybean plant response rating", "setting": "soybean (Glycine max); [4]", "value": 30}, {"measurement": "Plant response rating, Soybean", "setting": "soybean (Glycine max); [7]", "value": 50}, {"measurement": "Plant response rating, Pigweed, Palmer", "setting": "[1]; [4]", "value": 0}, {"measurement": "Plant response rating, Pigweed, Palmer", "setting": "[1]; [5]", "value": 0}, {"measurement": "Pigweed, Palmer plant response rating", "setting": "[2]; [4]", "value": 0}, {"measurement": "Plant response rating, Pigweed, Palmer", "setting": "[2]; [7]", "value": 10}, {"measurement": "Blackgrass plant response rating", "setting": "[3]; 31 g ai/ha", "value": 0}, {"measurement": "Plant response rating, Blackgrass", "setting": "[3]; 125 g ai/ha, 10 days", "value": 50}]}, {"smiles": "Cc1cc(C)c(C2=NOC3OCCCC23)cc1NS(=O)(=O)C(F)(F)F", "note": "(stereo not drawn) [Compound 372]", "values": [{"measurement": "Soybean plant response rating", "setting": "soybean (Glycine max); [4]", "value": 30}, {"measurement": "Plant response rating, Soybean", "setting": "soybean (Glycine max); 125 g ai/ha, 0 to 100 scale", "value": 60}, {"measurement": "Plant response rating, Pigweed, Palmer", "setting": "[1]; [4]", "value": 40}, {"measurement": "Plant response rating, Pigweed, Palmer", "setting": "[1]; [5]", "value": 90}, {"measurement": "Pigweed, Palmer plant response rating", "setting": "[2]; [4]", "value": 30}, {"measurement": "Plant response rating, Pigweed, Palmer", "setting": "[2]; 125 g ai/ha, 0 to 100 scale", "value": 40}, {"measurement": "Plant response rating, Blackgrass", "setting": "[3]; 31 g ai/ha, 10 days", "value": 0}, {"measurement": "Plant response rating, Blackgrass", "setting": "[3]; 125 g ai/ha", "value": 30}]}, {"smiles": "Cc1cc(C)c(N2Cc3cccc(C)c3C2=O)cc1NS(=O)(=O)Cl", "note": "[Compound 408]", "values": [{"measurement": "Soybean plant response rating", "setting": "soybean (Glycine max); [4]", "value": 40}, {"measurement": "Plant response rating, Soybean", "setting": "soybean (Glycine max); [7]", "value": 50}, {"measurement": "Plant response rating, Pigweed, Palmer", "setting": "[1]; 125 g ai/ha, 0 to 100 scale (0 no effect, 100 complete control)", "value": 60}, {"measurement": "Pigweed, Palmer plant response rating", "setting": "[2]; [4]", "value": 30}, {"measurement": "Plant response rating, Pigweed, Palmer", "setting": "[2]; [7]", "value": 50}, {"measurement": "Blackgrass plant response rating", "setting": "[3]; 31 g ai/ha", "value": 80}, {"measurement": "Plant response rating, Blackgrass", "setting": "[3]; 125 g ai/ha, 10 days", "value": 90}]}, {"smiles": "Cc1cc(C)c(N2CC3(CCCCC3)CC2=O)cc1NS(=O)(=O)C(F)(F)F", "note": "[Compound 392]", "values": [{"measurement": "Soybean plant response rating", "setting": "soybean (Glycine max); [4]", "value": 50}, {"measurement": "Plant response rating, Soybean", "setting": "soybean (Glycine max); [7]", "value": 60}, {"measurement": "Plant response rating, Pigweed, Palmer", "setting": "[1]; [4]", "value": 0}, {"measurement": "Plant response rating, Pigweed, Palmer", "setting": "[1]; [5]", "value": 20}, {"measurement": "Pigweed, Palmer plant response rating", "setting": "[2]; [4]", "value": 0}, {"measurement": "Plant response rating, Pigweed, Palmer", "setting": "[2]; [7]", "value": 40}, {"measurement": "Blackgrass plant response rating", "setting": "[3]; 31 g ai/ha", "value": 0}, {"measurement": "Plant response rating, Blackgrass", "setting": "[3]; 125 g ai/ha, 10 days", "value": 0}]}, {"smiles": "CCc1cc(C)c(N(COC(=O)C(C)(C)C)S(=O)(=O)C(F)(F)F)cc1C1=NOC2CCCC12", "note": "(stereo not drawn) [Compound 378]", "values": [{"measurement": "Soybean plant response rating", "setting": "soybean (Glycine max); [4]", "value": 0}, {"measurement": "Plant response rating, Soybean", "setting": "soybean (Glycine max); 125 g ai/ha, 0 to 100 scale", "value": 20}, {"measurement": "Plant response rating, Pigweed, Palmer", "setting": "[1]; [4]", "value": 0}, {"measurement": "Plant response rating, Pigweed, Palmer", "setting": "[1]; [5]", "value": 20}, {"measurement": "Pigweed, Palmer plant response rating", "setting": "[2]; [4]", "value": 0}, {"measurement": "Plant response rating, Pigweed, Palmer", "setting": "[2]; 125 g ai/ha, 0 to 100 scale", "value": 10}, {"measurement": "Plant response rating, Blackgrass", "setting": "[3]; 31 g ai/ha, 10 days", "value": 0}, {"measurement": "Plant response rating, Blackgrass", "setting": "[3]; 125 g ai/ha", "value": 30}]}, {"smiles": "COC1CCC2(CC1)CCN(c1cc(NS(=O)(=O)C(F)(F)F)c(C)cc1C)C2=O", "note": "(stereo not drawn) [Compound 398]", "values": [{"measurement": "Soybean plant response rating", "setting": "soybean (Glycine max); [4]", "value": 30}, {"measurement": "Plant response rating, Soybean", "setting": "soybean (Glycine max); [7]", "value": 60}, {"measurement": "Plant response rating, Pigweed, Palmer", "setting": "[1]; [4]", "value": 80}, {"measurement": "Plant response rating, Pigweed, Palmer", "setting": "[1]; [5]", "value": 100}, {"measurement": "Pigweed, Palmer plant response rating", "setting": "[2]; [4]", "value": 50}, {"measurement": "Plant response rating, Pigweed, Palmer", "setting": "[2]; [7]", "value": 80}, {"measurement": "Blackgrass plant response rating", "setting": "[3]; 31 g ai/ha", "value": 0}, {"measurement": "Plant response rating, Blackgrass", "setting": "[3]; 125 g ai/ha, 10 days", "value": 30}]}]}
